Measurements reported in ChEMBL document CHEMBL5465560, “Selectivity Literature for EUbOPEN Chemogenomic Library” (2024).

Legend:
D(1A) dopamine receptor = D(1A) dopamine receptor (Homo sapiens, UniProt P21728); assay: Selectivity interaction (GPCR panel (PDSP screen)) EUB0000311b DRD1; conditions: at 10 µM
Insulin receptor = Insulin receptor (Homo sapiens, UniProt P06213); assay: Selectivity interaction (KinomeScan (DiscoverX)) EUB0000229b INSR; conditions: at 10 µM
[1] = biological target: Mitogen-activated protein kinase 1 (Homo sapiens, UniProt P28482); assay: Selectivity interaction (Kinase panel (KiNativ target engagement assay in Jurkat cells)) EUB0001635a MAPK1; type: cell-based; conditions: Selectivity number of off-targets 0.0, Selectivity number of targets 233.0, Source Knowledge https://www.sciencedirect.com/science/article/pii/S2451945619300674?via%3Dihub, at 1 µM
Chain of Mitogen-activated protein kinase 1 (P28482 whole entry): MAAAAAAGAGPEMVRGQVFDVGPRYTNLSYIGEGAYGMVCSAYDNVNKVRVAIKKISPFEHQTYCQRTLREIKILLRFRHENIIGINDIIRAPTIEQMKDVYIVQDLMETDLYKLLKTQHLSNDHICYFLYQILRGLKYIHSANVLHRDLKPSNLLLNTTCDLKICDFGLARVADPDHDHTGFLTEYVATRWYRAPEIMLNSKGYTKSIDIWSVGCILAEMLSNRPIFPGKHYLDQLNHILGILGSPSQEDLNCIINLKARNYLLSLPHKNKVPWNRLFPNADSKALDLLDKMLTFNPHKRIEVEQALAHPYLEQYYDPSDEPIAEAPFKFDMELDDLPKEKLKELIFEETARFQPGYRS

[2] = biological target: T1, Mitogen-activated protein kinase kinase kinase 5 (Homo sapiens) (UniProt Q99683); assay: Selectivity interaction (KinomeScan (DiscoverX)) EUB0000618a MAP3K5; conditions: at 10 µM
T1 sequence (whole entry): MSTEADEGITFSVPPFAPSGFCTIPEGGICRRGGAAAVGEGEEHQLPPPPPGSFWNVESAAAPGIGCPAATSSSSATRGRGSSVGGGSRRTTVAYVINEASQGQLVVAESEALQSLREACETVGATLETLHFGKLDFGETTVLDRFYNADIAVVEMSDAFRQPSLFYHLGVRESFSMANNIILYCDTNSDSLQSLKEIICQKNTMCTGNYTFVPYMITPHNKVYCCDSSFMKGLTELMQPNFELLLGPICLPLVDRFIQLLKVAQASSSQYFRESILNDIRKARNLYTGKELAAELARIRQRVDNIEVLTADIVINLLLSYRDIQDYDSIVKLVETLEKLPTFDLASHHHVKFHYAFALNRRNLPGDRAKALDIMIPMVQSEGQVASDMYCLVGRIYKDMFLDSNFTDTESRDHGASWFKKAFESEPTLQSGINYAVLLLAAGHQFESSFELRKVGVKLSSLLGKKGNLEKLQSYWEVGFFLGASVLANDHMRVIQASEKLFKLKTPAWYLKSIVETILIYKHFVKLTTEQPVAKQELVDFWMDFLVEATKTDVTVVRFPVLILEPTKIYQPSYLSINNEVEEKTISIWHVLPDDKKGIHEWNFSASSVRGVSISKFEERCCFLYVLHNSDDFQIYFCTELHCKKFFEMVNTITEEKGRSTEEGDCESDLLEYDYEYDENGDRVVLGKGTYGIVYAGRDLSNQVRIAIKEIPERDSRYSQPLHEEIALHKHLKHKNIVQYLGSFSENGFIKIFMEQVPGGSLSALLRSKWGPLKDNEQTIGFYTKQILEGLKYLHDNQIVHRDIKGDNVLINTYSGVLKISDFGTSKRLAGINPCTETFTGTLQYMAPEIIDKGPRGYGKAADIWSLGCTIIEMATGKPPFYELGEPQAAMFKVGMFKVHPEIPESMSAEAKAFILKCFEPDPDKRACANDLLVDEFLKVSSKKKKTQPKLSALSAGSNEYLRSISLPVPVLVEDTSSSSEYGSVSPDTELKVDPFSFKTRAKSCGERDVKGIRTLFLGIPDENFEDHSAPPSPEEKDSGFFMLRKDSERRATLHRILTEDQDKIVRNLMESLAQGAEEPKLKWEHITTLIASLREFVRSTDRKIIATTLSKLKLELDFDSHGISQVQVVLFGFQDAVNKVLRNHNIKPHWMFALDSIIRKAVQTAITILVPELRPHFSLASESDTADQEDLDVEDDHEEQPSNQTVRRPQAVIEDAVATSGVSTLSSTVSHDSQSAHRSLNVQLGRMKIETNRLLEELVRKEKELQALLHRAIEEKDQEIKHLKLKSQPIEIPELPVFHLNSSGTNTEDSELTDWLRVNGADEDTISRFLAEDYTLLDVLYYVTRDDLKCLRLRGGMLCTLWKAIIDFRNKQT

[3] = biological target: T2, Interleukin-1 receptor-associated kinase 3 (Homo sapiens) (UniProt Q9Y616); conditions: at 10 µM
T2 sequence (whole entry): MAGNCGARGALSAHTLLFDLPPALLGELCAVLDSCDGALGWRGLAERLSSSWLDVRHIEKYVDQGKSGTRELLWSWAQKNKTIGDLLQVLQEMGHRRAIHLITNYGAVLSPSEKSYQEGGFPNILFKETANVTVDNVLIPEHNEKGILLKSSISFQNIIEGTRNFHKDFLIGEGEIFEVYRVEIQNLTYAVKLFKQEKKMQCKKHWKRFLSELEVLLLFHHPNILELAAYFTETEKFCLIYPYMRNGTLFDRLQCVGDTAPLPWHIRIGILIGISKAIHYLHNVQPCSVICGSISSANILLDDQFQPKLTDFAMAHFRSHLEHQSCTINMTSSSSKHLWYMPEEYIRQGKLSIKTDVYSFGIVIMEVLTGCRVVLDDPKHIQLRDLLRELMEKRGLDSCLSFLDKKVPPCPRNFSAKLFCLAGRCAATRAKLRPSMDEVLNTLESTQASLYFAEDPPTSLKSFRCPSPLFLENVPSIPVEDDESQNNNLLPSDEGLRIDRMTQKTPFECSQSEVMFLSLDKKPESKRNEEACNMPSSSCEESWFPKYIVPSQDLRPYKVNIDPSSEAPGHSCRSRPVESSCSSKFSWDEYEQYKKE

[4] = biological target: Mitotic checkpoint serine/threonine-protein kinase BUB1 (Homo sapiens, UniProt O43683); assay: Selectivity interaction (KinomeScan (DiscoverX)) EUB0000607a BUB1; conditions: at 10 µM
Chain of Mitotic checkpoint serine/threonine-protein kinase BUB1 (O43683 whole entry, looked up): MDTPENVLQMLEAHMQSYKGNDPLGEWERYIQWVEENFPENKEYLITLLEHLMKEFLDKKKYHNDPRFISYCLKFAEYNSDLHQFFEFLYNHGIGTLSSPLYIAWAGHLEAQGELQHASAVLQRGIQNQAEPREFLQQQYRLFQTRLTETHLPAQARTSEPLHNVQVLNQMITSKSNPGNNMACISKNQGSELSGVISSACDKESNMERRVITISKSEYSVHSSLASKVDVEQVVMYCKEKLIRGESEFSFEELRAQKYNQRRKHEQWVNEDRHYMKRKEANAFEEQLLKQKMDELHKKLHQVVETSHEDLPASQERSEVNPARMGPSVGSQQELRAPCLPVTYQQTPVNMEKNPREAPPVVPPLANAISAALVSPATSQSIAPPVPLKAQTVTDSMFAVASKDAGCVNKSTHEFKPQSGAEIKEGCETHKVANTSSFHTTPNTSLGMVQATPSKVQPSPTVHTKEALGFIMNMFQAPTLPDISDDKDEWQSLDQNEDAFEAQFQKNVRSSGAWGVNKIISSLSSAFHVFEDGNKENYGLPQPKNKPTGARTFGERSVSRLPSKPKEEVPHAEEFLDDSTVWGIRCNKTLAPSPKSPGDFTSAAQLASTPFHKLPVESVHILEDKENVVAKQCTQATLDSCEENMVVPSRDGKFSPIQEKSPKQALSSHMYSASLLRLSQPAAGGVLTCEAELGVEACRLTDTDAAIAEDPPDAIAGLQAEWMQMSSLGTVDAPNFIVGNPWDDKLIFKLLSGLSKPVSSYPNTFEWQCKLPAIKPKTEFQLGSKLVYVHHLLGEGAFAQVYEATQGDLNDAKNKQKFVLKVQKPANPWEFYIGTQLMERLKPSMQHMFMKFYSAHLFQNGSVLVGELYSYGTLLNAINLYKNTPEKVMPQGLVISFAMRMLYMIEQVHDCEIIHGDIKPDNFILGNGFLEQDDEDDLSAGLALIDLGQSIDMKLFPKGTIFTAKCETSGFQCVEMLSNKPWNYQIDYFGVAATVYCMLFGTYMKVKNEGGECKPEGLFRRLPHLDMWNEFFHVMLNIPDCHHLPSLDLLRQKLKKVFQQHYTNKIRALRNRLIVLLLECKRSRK

Chain of D(1A) dopamine receptor (P21728 whole entry): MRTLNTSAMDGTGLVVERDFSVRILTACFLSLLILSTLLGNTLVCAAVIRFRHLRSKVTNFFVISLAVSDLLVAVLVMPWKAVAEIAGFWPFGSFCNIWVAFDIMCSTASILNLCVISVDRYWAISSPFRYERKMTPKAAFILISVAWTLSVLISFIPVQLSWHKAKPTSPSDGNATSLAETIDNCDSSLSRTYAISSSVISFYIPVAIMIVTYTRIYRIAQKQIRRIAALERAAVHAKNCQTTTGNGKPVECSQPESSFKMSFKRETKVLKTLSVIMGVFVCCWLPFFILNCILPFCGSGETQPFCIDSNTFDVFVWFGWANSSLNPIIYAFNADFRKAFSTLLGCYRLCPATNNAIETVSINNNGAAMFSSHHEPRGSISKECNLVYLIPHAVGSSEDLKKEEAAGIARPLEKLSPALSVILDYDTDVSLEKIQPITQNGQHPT
Chain of Insulin receptor (P06213 28-758 limits assumed): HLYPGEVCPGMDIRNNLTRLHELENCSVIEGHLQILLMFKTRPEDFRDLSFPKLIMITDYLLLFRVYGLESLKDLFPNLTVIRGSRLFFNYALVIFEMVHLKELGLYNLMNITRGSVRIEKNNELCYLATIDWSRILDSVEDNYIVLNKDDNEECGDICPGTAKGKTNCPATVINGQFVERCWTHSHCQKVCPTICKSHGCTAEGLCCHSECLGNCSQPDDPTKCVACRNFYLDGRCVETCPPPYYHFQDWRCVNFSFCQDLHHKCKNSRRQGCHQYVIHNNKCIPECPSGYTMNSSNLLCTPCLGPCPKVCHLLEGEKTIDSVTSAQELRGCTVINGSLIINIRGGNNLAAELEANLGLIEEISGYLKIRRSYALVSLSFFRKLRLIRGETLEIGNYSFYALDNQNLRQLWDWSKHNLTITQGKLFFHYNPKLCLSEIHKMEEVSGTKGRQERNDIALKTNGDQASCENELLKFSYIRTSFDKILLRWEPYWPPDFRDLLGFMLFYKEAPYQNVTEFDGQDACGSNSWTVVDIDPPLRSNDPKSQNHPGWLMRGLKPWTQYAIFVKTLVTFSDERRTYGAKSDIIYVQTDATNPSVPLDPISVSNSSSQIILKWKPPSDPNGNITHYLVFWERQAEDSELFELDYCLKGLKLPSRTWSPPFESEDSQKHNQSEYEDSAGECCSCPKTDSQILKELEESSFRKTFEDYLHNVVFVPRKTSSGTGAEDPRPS
Chain of Insulin receptor (P06213 763-1382 limits assumed): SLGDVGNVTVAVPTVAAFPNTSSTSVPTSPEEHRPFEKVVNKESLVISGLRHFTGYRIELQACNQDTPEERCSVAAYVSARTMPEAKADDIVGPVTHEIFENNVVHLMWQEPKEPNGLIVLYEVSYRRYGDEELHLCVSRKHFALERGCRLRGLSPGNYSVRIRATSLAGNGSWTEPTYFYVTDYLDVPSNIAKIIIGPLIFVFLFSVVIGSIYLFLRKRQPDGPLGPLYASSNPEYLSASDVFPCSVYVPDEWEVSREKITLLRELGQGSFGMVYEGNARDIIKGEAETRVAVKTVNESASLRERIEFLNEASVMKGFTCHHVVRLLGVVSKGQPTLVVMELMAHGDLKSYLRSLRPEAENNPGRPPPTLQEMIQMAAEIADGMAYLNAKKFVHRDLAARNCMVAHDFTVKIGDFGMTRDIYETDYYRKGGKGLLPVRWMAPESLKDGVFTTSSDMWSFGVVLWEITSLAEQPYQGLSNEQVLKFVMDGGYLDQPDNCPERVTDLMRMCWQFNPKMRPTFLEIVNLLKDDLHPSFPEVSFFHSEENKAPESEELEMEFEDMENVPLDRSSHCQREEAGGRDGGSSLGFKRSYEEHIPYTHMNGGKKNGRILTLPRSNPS

CCc1ccccc1C(=O)Nc1n[nH]c2c(C)c(F)c(C3C(C#N)=C(C)N(C)C(C)=C3C#N)cc12 [BAY-3827]
% of inhibition (D(1A) dopamine receptor): 67.4%

COc1cc(N(C)c2ccnc3ccc(C(F)(F)F)cc23)cc(OC)c1OC
% binding (Insulin receptor): 100%

C=CC(=O)Nc1ccc(C(=O)Nc2[nH]nc3c2CN(C(=O)N[C@H](CN(C)C)c2ccccc2)C3(C)C)cc1
% of engagement [1]: 0.4%

O[C@H]1CC[C@H](Nc2ncc3nc(Nc4c(F)cc(F)cc4F)n([C@H]4CCOC4)c3n2)CC1
% of control [2]: 100%

Cc1cc([C@@H](C)Nc2ccccc2C(=O)O)c2nc(N3CCOCC3)cc(=O)n2c1 [AZD-6482]
% of control [3]: 58%

CNC(=O)Nc1ccc(-c2nc(N3CC4CCC(C3)O4)c3cnn(C4CCC5(CC4)OCCO5)c3n2)cc1
% of control [4]: 52%
